Measured values as given in patent US6403117B1, “Archaesomes, archaeosomes containing coenzyme Q10 and other types of liposomes containing coenzyme Q10 adjuvants and as delivery vehicles” (National Research Council of Canada, priority 1995, dated 2002).

Test system: bovine serum albumin (BSA) antigen
Test: Immunization, humoral response by ELISA
Assay type: in vivo, mice
Conditions: for Antibody titres (A410 nm): 12.5 μg BSA i.p. at days 0 and 14, sera diluted by a factor of 400
Protocol: For in vivo studies with archaeosomes (prepared from the TPL, or a lipid obtained in a biologically pure form from the indicated archaeobacterium) and conventional liposomes (prepared from DMPC:DMPG at 1.8:0.2 molar ratio, or DMPC:DMPG:CHOL at 1.8:0.2:1.5 molar ratio, or DMPC:DCP:CHOL at 7:1:2 molar ratio) containing entrapped antigen, the vesicles were prepared by pressure extrusion (at room temperature for archaeobacterial and at 35° C. for DMPC-containing lipids, using 400 nm pore size filters). About 20 mg dry weight of the dried lipid(s) was hydrated in 1 ml PBS containing either BSA (5 mg/ml), Cholera B toxin subunit (0.5 mg/ml), or O-chain polysaccharide (18 mg/ml). To entrap BSA in DSPC:DCP:CHOL (4:1:5, molar ratio), in DSPC:DCP:CHOL:CoQ10 (3:1:4:2, molar ratio), and M. mazei TPL:CoQ10 (8:2, molar ratio), the vesicles were prepared by the REV (at 55° C.)-sonication method described above. The BSA was encapsulated in these vesicles by the DRV method as described by New (13). The antigen that was not entrapped/associated with the vesicles was removed by centrifugation and washing as described for peroxidase-vesicles.
The immunization strategies were similar for each of the different experiments. For each experiment, details of the amounts and types of antigen/adjuvant injected, and the time intervals between injections is described in the appropriate figure legends. Freund's adjuvant (FA) encompasses Freund's complete adjuvant (CFA) and Freund's incomplete adjuvant (IFA) used at 62.5% strength in PBS. For each antigen/adjuvant preparation three mice were injected (unless indicated otherwise) i.p., i.m., or s.c. with antigens encapsulated in archaeosomes or liposomes (diluted in sterile PBS, pH 7.1), antigens emulsified in CFA, or with antigens diluted in PBS alone (final volume, 0.2 ml/mouse). For the second immunization, mice were injected with antigens encapsulated in archaeosomes or liposomes, or emulsified in IFA, or diluted in PBS. For experiments where a third or fourth injection was required, antigens were injected either encapsulated in the respective vesicle type or as bare antigen diluted in PBS. Mice were 6-8 weeks of age at the time of the first immunization.
Mice were bled from the tail veins usually four days after each injection. The blood was allowed to dot, and cells removed from the serum by centrifuging in serum separator tubes.
The humoral response was measured by the indirect enzyme-linked immunosorbent assay (ELISA) using a variety of solid-phase adsorbed antigens. BSA, Cholera B toxin subunit, or E. coli 0:157:H7 lipopolysaccharide was diluted in distilled water (15 μg/ml final concentration) and 100 μl/well was dried (overnight incubation at 37° C.) to coat the ELISA microplate wells. All indirect ELISA assays were performed using standard methods. Dilutions of antibody-containing sera were used as the first antibody and a 1/1500 dilution of HRP-conjugated goat anti-mouse IgG+IgM as the detection antibody.
The isotypes of anti-BSA antibodies raised in mouse sera were assayed by an ELISA method. Wells were coated with BSA (as above). Dilutions of each serum were titred with peroxidase-coupled sheep anti-mouse IgG1, IgG2a, IgG2b, IgG3, and IgM. All ELISA data are reported as the means ± sample standard deviations.

## Bare BSA: bovine serum albumin antigen alone in PBS, without adjuvant or vesicle
Day 25
  Antibody titres (A410 nm): 0.064 ± 0.001 A410 nm
Day 35
  Antibody titres (A410 nm): 0.082 ± 0.007 A410 nm
Day 55
  Antibody titres (A410 nm): 0.075 ± 0.008 A410 nm
i.m., 12.5 μg antigen alone in PBS, sera diluted 400-fold
  Antibody titre (A410 nm): 0.063 ± 0.003 A410 nm
i.p., 12.5 μg BSA, days 0 and 14, blood day 20, IgG + IgM, archaeobacterial lipids none
  Immune response (Relative %): 6.9 ± 0.3 Relative %
i.p., 25 μg antigen alone in PBS, no carrier/adjuvant, sera diluted 400 fold
  Antibody titre (A410 nm): 0.137 ± 0.002 A410 nm
i.p., antigen alone in PBS, undiluted sera
  Anti-BSA antibody Concentration: 10.5 µg/mL
